Here are results for 34 molecules from ChEMBL document CHEMBL3351993, “Design, synthesis and docking study of 5-(substituted benzylidene)thiazolidine-2,4-dione derivatives as inhibitors of protein tyrosine phosphatase 1B” (Bioorg Med Chem Lett, 2014).

In this test the target is T1, Tyrosine-protein phosphatase non-receptor type 1 (Homo sapiens, UniProt P18031).
T1 sequence (P18031 whole entry): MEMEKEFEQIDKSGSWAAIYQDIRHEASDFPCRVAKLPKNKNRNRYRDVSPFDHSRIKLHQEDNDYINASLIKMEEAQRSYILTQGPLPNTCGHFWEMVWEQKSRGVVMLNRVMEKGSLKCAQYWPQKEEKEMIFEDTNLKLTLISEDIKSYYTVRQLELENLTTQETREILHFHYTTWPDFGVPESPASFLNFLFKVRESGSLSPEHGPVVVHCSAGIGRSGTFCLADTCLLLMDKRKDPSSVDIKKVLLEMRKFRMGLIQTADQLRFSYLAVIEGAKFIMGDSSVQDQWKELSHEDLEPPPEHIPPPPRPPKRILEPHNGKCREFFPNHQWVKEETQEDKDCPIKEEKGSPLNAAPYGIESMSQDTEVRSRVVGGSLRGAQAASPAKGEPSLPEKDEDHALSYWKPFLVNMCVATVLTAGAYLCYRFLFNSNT
The test can be described thus: Inhibition of human recombinant PTP1B using pNPP substrate at 37 degC measured after 30 mins.
As to `C=CCN1C(=O)S/C(=C\c2cc(Br)c(OCCCC)cc2OC)C1=O`, the IC50 turned out to be 7.9 µM. Under `COc1cc(OCC=C(C)C)c(Br)cc1/C=C1\SC(=O)N(Cc2ccccc2)C1=O` stands 10.3 µM; under `C=CCc1cc(/C=C2\SC(=O)NC2=O)c(OC)cc1OC1CCCCO1` (centres undefined), 12.2 µM; under `COc1cc(O)c(Br)cc1/C=C1\SC(=O)NC1=O`, 11.3 µM.

In the case of `C=CCc1cc(/C=C2\SC(=O)NC2=O)c(OC)cc1O`, the IC50 is 29.3 µM. Under `COc1cc(OCC=C(C)C)c(Br)cc1/C=C1\SC(=O)N(C(C)C)C1=O` stands 4.6 µM. With `C=CCc1cc(/C=C2\SC(=O)N(CC=C)C2=O)c(OC)cc1O`, the IC50 is over 30 µM.

Regarding `C=CCc1cc(/C=C2\SC(=O)N(C(C)C)C2=O)c(OC)cc1OC1CCCCO1` (centres undefined), the IC50 was over 30 µM. Regarding `COc1cc(OC)c(/C=C2\SC(=O)N(C)C2=O)cc1Br`, the IC50 stood at 22.3 µM. With `C=CCc1cc(/C=C2\SC(=O)N(CCCC)C2=O)c(OC)cc1OC1CCCCO1` (centres undefined) the figure was 20.6 µM. With `C=CCOc1cc(OC)c(/C=C2\SC(=O)NC2=O)cc1Br` the figure was 8.1 µM; with `CCCCOc1cc(OC)c(/C=C2\SC(=O)N(Cc3ccccc3)C2=O)cc1Br`, 6.6 µM; with `COc1cc(OCC=C(C)C)c(Br)cc1/C=C1\SC(=O)N(C)C1=O`, 8.2 µM. Take `CCCCOc1cc(OC)c(/C=C2\SC(=O)NC2=O)cc1Br`: the IC50 amounted to 4.9 µM. With `COc1cc(OCC=C(C)C)c(Br)cc1/C=C1\SC(=O)NC1=O` the figure was 5.3 µM. Turning to `COc1cc(O)ccc1/C=C1\SC(=O)NC1=O`, the IC50 was 29.8 µM. Under `COc1cc(OCc2ccccc2)c(Br)cc1/C=C1\SC(=O)NC1=O` stands 7.6 µM; under `C=CCc1cc(/C=C2\SC(=O)N(C)C2=O)c(OC)cc1OC1CCCCO1` (centres undefined), over 30 µM.

`CCCCN1C(=O)S/C(=C\c2cc(Br)c(OCC=C(C)C)cc2OC)C1=O`: the IC50 is 12.3 µM. For `C=CCc1cc(/C=C2\SC(=O)N(CC=C(C)C)C2=O)c(OC)cc1O`, the IC50 was 12 µM. With `COc1cc(OCC=C(C)C)c(Br)cc1/C=C1\SC(=O)N(CC=C(C)C)C1=O` the figure was 10 µM; with `C=CCc1cc(/C=C2\SC(=O)N(Cc3ccccc3)C2=O)c(OC)cc1O`, 7.2 µM; with `C=CCc1cc(/C=C2\SC(=O)N(Cc3ccccc3)C2=O)c(OC)cc1OC1CCCCO1` (centres undefined), over 30 µM. Under `C=CCc1cc(/C=C2\SC(=O)N(CC=C(C)C)C2=O)c(OC)cc1OC1CCCCO1` (centres undefined) stands 22.7 µM; under `C=CCc1cc(/C=C2\SC(=O)N(C(C)C)C2=O)c(OC)cc1O`, 6.4 µM. Take `COc1cc(OC)c(/C=C2\SC(=O)NC2=O)cc1Br`: the half-maximal inhibitory concentration (IC50) is 14.2 µM.

Regarding `C=CCc1cc(/C=C2\SC(=O)N(CC=C)C2=O)c(OC)cc1OC1CCCCO1` (centres undefined), the IC50 is over 30 µM. Under `CCCCOc1cc(OC)c(/C=C2\SC(=O)N(C)C2=O)cc1Br` stands 12.1 µM. Consider `C=CCN1C(=O)S/C(=C\c2cc(Br)c(OCC=C(C)C)cc2OC)C1=O`, for which the IC50 came out at 17 µM.

On to `C=CCc1cc(/C=C2\SC(=O)N(CCCC)C2=O)c(OC)cc1O`, for which the IC50 came out at 9.6 µM.

With `C=CCc1cc(/C=C2\SC(=O)N(C)C2=O)c(OC)cc1O`, the IC50 is over 30 µM.

For `CCCCOc1cc(OC)c(/C=C2\SC(=O)N(CCCC)C2=O)cc1Br`, the IC50 is over 30 µM.

In the case of `COc1cc(OCc2ccccc2)c(Br)cc1/C=C1\SC(=O)N(C)C1=O`, the IC50 came out at 8.1 µM. As to `CCCCOc1cc(OC)c(/C=C2\SC(=O)N(C(C)C)C2=O)cc1Br`, the half-inhibitory concentration (IC50) worked out at 9.7 µM.
